Data published in PubChem BioAssay AID1919009 (Molecular Pharmacology Branch, DTP, NCI, 2023).
pIC50: −log10 of the molar value. Several values for one entry are separate records, joined by “and”; a condition that tells them apart may be missing. Equal values may be shown once.

System: K24384-001-R-PDC complex spheroid growth
Assay: Anticancer human tumor K24384-001-R-PDC patient-derived pancreatic adenocarcinoma cell line growth inhibition [AhR]
Conditions: for viability, T/C: stronger effect = lower value
From the text: Multicellular complex tumor spheroid response to aryl hydrocarbon receptor antagonists in combination with a variety of drugs and investigational agents in selected tumor cell lines
The current study was undertaken to assess response to aryl hydrocarbon receptor antagonists in combination with standard-of-care drugs and investigational agents in solid tumor complex spheroid models. Complex spheroids include a stromal component modeled by human endothelial cells (HUVEC) and fibroblasts modeled by human mesenchymal stem cells (MSCs). The concentration ranges selected for each drug and investigational agent were based upon clinically achievable concentrations if the clinical Cmax of the agent was known.
Compounds. The drugs and investigational agents: BAY 2416964 (NSC825713), GNF351 (NSC835774), CH-223191 (NSC835775), CPI-455 (NSC825282), aza-TdCyd (NSC777586), decitabine (NSC127716), belinostat (NSC758774), entinostat (NSC756642), pevonedistat (NSC761192), tazemetostat (NSC777109), talazoparib (NSC765396), olaparib (NSC753686), selinexor (NSC780203), nedisertib (M3814, NSC802822), bortezomib (NSC756655), venetoclax (NSC766270), doxorubicin (NSC123127), elimusertib (BAY189344, NSC800525), ceralasertib (AZD6738, NSC777638), TAK-243 (NSC785004), alisertib (NSC759677), etoposide (NSC141540), topotecan (NSC609699), eribulin (NSC707389), gemcitabine (NSC613327), carboplatin (NSC241240), cisplatin (NSC119875), and SN-38 (NSC673596) were obtained from the National Cancer Institute (NCI) Developmental Therapeutics Program Chemical Repository (32). The FDA-approved anticancer drug set is available from the Developmental Therapeutics Program at https://dtp.cancer.gov/organization/dscb/obtaining/available plates.htm. […] The stock solutions were prepared in dimethyl sulfoxide (DMSO, Sigma-Aldrich, St. Louis, MO, cat. D2650), except for the platinum compounds which were prepared in saline (Quality Biological, Gaithersburg, MD, cat. 114-055-101), at 800-fold the tested concentration and stored at -70 degrees C prior to their use. All drugs and investigational agents were tested over a range starting from a high concentration at or near the clinical Cmax and decreasing in half-log increments. If the clinical Cmax for an agent had not been determined, the highest concentration tested was 10 microM (Table 1).
Cell Culture. All cells were maintained in an incubator at 37 degrees C and 5% CO2 with 95% humidity. The PDC lines were cultured according to standard operating procedures established by the NCI PDMR (https://pdmr.cancer.gov). Briefly, all PDCs were thawed and cultured in Matrigel-coated flasks prepared with a working solution of 1X Ham's F-12 nutrient mix, without supplementation (Invitrogen, Waltham, MA, cat. 11765054), 100 U/mL penicillin-streptomycin (Invitrogen, cat. 15140122), and 2.5% Matrigel (Corning Inc., Corning, NY, cat. 354248) for the first three passages. All PDCs were cultured in complete DMEM/F-12 media containing advanced DMEM/F-12 (Invitrogen, cat. 12634028), 4.9% defined fetal bovine serum, heat inactivated (HyClone Laboratories Inc., Logan, UT, cat. SH30070.03HI), 389 ng/mL hydrocortisone (Sigma-Aldrich, cat. H4001), 9.7 ng/mL human EGF recombinant protein (Invitrogen, cat. PHG0313), 23.4 microg/mL adenine (Sigma-Aldrich, cat. A2786), 97.3 U/mL penicillin-streptomycin (Invitrogen, cat. 15140122), 1.9 mM L-glutamine (Invitrogen, cat. 25030081), and 9.7 microM Y-27632 dihydrochloride (Tocris Bioscience, Bristol, United Kingdom, cat. 1254). The PDCs were cultured in complete DMEM/F12 media without 10 microM Y-27632 dihydrochloride for at least two passages prior to the screen. The established cell lines NCI-H1341 and […] were cultured in DMEM/F-12, HEPES (Invitrogen, cat. 11330032), 5% defined fetal bovine serum (HyClone Laboratories Inc., cat. SH30070.03), ITS premix universal culture supplement [insulin (5 microg/mL), transferrin (5 microg/mL), and selenious acid (5 ng/mL)] […]

[1] = curve of first compound, second compound 0.1 µM
[2] = curve of first compound, second compound 0.316 µM
[3] = curve of first compound, second compound 1 µM
[4] = curve of first compound, second compound 3.16 µM
[5] = curve of first compound, second compound 10 µM
[6] = second compound 0.1 µM, first compound 0.0316 µM
[7] = second compound 0.1 µM, first compound 0.1 µM
[8] = second compound 0.1 µM, first compound 0.316 µM
[9] = second compound 0.1 µM, first compound 1 µM
[10] = second compound 0.1 µM, first compound 3.16 µM
[11] = second compound 0.1 µM, first compound 10 µM
[12] = second compound 0.316 µM, first compound 0.0316 µM
[13] = second compound 0.316 µM, first compound 0.1 µM
[14] = second compound 0.316 µM, first compound 0.316 µM
[15] = second compound 0.316 µM, first compound 1 µM
[16] = second compound 0.316 µM, first compound 3.16 µM
[17] = second compound 0.316 µM, first compound 10 µM
[18] = second compound 1 µM, first compound 0.0316 µM
[19] = second compound 1 µM, first compound 0.1 µM
[20] = second compound 1 µM, first compound 0.316 µM
[21] = second compound 1 µM, first compound 1 µM
[22] = second compound 1 µM, first compound 3.16 µM
[23] = second compound 1 µM, first compound 10 µM
[24] = second compound 3.16 µM, first compound 0.0316 µM
[25] = second compound 3.16 µM, first compound 0.1 µM
[26] = second compound 3.16 µM, first compound 0.316 µM
[27] = second compound 3.16 µM, first compound 1 µM
[28] = second compound 3.16 µM, first compound 3.16 µM
[29] = second compound 3.16 µM, first compound 10 µM
[30] = second compound 10 µM, first compound 0.0316 µM
[31] = second compound 10 µM, first compound 0.1 µM
[32] = second compound 10 µM, first compound 0.316 µM
[33] = second compound 10 µM, first compound 1 µM
[34] = second compound 10 µM, first compound 3.16 µM
[35] = second compound 10 µM, first compound 10 µM
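For viability, T/C in this document: percent of DMSO vehicle-treated spheroid viability set as 100%.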

Compound `Nc1ccccc1NC(=O)c1ccc(CNC(=O)OCc2cccnc2)cc1` + Cc1cncc(-c2nc(NCCc3c[nH]c4ccccc34)c3ncn(C(C)C)c3n2)c1 has a pIC50 [1] of 5.76, a pIC50 [2] of 5.96 and a pIC50 [3] of 5.82. For the same compound, the pIC50 [4] was 6.02, the pIC50 [5] was greater than 7.50 and the viability, T/C [6] was 90%. It also gave a viability, T/C [7] of 86.7%, a viability, T/C [8] of 79.6% and a viability, T/C [9] of 69.3%. The viability, T/C [10] was 30.3%, the viability, T/C [11] was 6.17% and the viability, T/C [12] was 111%. The viability, T/C [13] was 108%, the viability, T/C [14] was 77.7% and the viability, T/C [15] was 48.3%. The viability, T/C [16] was 31%, the viability, T/C [17] was 3.5% and the viability, T/C [18] was 111%. For the same compound, the viability, T/C [19] was 99.8%, the viability, T/C [20] was 87% and the viability, T/C [21] was 56.6%. For the same compound, the viability, T/C [22] was 33.6%, the viability, T/C [23] was 2.82% and the viability, T/C [24] was 77.6%. For the same compound, the viability, T/C [25] was 93.2%, the viability, T/C [26] was 61.9% and the viability, T/C [27] was 43%. It also gave a viability, T/C [28] of 33.1%, a viability, T/C [29] of 1.51% and a viability, T/C [30] of 15.2%. The viability, T/C [31] was 10.7%, the viability, T/C [32] was 7.68% and the viability, T/C [33] was 5.34%. It also gave a viability, T/C [34] of 4.19% and a viability, T/C [35] of 0.39%.
With `CC1COCCN1c1cc(C2(S(C)(=N)=O)CC2)nc(-c2ccnc3[nH]ccc23)n1` (configuration not stated) the viability, T/C (compound 0.0316 µM) was 107% and 105% and 126%, the viability, T/C (compound 0.1 µM) was 98.2% and 113% and 97.1% and the viability, T/C (compound 0.316 µM) was 105% and 102% and 95.6%. The viability, T/C (compound 1 µM) was 85% and 85.7% and 89.4%, the viability, T/C (compound 3.16 µM) was 71.8% and 56.9% and 59.7% and the viability, T/C (compound 10 µM) was 37.3% and 32.7% and 45.1%. The pIC50 (curve of compound) was 5.19 and 5.37 and 5.12.
Compound `Nc1ccccc1NC(=O)c1ccc(CNC(=O)OCc2cccnc2)cc1` + CC(CO)NC(=O)c1cc(-c2ccc(Cl)cc2)nn(-c2cnn(C)c2)c1=O has a pIC50 [1] of 5.71, a pIC50 [2] of 5.87 and a pIC50 [3] of 5.93. It also gave a pIC50 [4] of 6.01, a pIC50 [5] of 6.24 and a viability, T/C [6] of 100%. The viability, T/C [7] was 101%, the viability, T/C [8] was 88.2% and the viability, T/C [9] was 60.9%. It also gave a viability, T/C [10] of 41.8%, a viability, T/C [11] of 6.28% and a viability, T/C [12] of 87.6%. For the same compound, the viability, T/C [13] was 97.7%, the viability, T/C [14] was 80.6% and the viability, T/C [15] was 53.2%. For the same compound, the viability, T/C [16] was 31.8%, the viability, T/C [17] was 4.37% and the viability, T/C [18] was 88.2%. It also gave a viability, T/C [19] of 94.8%, a viability, T/C [20] of 92.1% and a viability, T/C [21] of 47.4%. It also gave a viability, T/C [22] of 28.8%, a viability, T/C [23] of 4.21% and a viability, T/C [24] of 83.7%. For the same compound, the viability, T/C [25] was 92.4%, the viability, T/C [26] was 79% and the viability, T/C [27] was 44.6%. It also gave a viability, T/C [28] of 24.2%, a viability, T/C [29] of 1.77% and a viability, T/C [30] of 70.9%. The viability, T/C [31] was 72.8%, the viability, T/C [32] was 55.9% and the viability, T/C [33] was 40.5%. For the same compound, the viability, T/C [34] was 25.1% and the viability, T/C [35] was 0.88%.
Compound `COc1cccc2c1C(=O)c1c(O)c3c(c(O)c1C2=O)CC(O)(C(=O)CO)CC3OC1CC(N)C(O)C(C)O1` (configuration not stated) + CC(CO)NC(=O)c1cc(-c2ccc(Cl)cc2)nn(-c2cnn(C)c2)c1=O has a pIC50 [1] of 7.11, a pIC50 [2] of 7.08 and a pIC50 [3] of 7.15. It also gave a pIC50 [4] of 7.17, a pIC50 [5] of 7.28 and a viability, T/C [6] of 60.8%. For the same compound, the viability, T/C [7] was 45.7%, the viability, T/C [8] was 26.5% and the viability, T/C [9] was 8.5%. It also gave a viability, T/C [10] of 2.41%, a viability, T/C [11] of 9.56% and a viability, T/C [12] of 62%. It also gave a viability, T/C [13] of 46.9%, a viability, T/C [14] of 22.6% and a viability, T/C [15] of 5.23%. It also gave a viability, T/C [16] of 3.01%, a viability, T/C [17] of 8.52% and a viability, T/C [18] of 64.4%. For the same compound, the viability, T/C [19] was 43%, the viability, T/C [20] was 22.3% and the viability, T/C [21] was 5.55%. For the same compound, the viability, T/C [22] was 2.67%, the viability, T/C [23] was 9.64% and the viability, T/C [24] was 58.1%. It also gave a viability, T/C [25] of 44.5%, a viability, T/C [26] of 24.4% and a viability, T/C [27] of 4.46%. The viability, T/C [28] was 3.77%, the viability, T/C [29] was 8.98% and the viability, T/C [30] was 52.8%. For the same compound, the viability, T/C [31] was 46.4%, the viability, T/C [32] was 17.9% and the viability, T/C [33] was 2.07%. For the same compound, the viability, T/C [34] was 3.16% and the viability, T/C [35] was 10.2%.
